# Assay results reported in patent US6566334B1, “Short amphipathic peptides with activity against bacteria and intracellular pathogens” (priority 1997, dated 2003).
# Where a SMILES comes first, the peptide text is derived from it. [ ]: non-standard residue; d: D form. Ac6c = NC1(C(=O)O)CCCCC1; Api = NC1(C(=O)O)CCNCC1; Aib = CC(C)(N)C(=O)O
# Assays:
# [1] = test system: Escherichia coli, ATCC 25922; details: for Peptide minimum inhibitory concentration, E. coli: MIC after 4 h, median of 3-7 tests, corrected for actual peptide concentration
# [2] = test system: Staphylococcus aureus, ATCC 25723; details: for Peptide minimum inhibitory concentration, S. aureus: MIC after 4 h, median of 3-7 tests, corrected for actual peptide concentration
# [3] = test system: Normal murine macrophages; details: 10 μM
# [4] = in vitro; details: BALB/c, mouse, normal (non-infected) primary murine peritoneal macrophages, Normal Macrophage Survival Rate
# [5] = target: trypsin (Sus scrofa, UniProt P00761); experiment: Resistance to trypsin, E. coli MIC assay after trypsin incubation; details: trypsin 20 min at 37° C., then MIC assay with E. coli
# Chain of trypsin (P00761 9-231): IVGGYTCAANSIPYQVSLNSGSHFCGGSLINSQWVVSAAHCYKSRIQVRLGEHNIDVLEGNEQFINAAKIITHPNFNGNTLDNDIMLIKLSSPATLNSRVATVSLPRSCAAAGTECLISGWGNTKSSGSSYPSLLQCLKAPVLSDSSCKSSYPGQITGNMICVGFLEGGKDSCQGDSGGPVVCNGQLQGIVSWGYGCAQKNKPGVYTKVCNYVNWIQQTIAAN
# [6] = test system: B. abortus infected BALB/c mice; details: mouse, in vivo
# [7] = Circular dichroism (CD) in SDS micelles, percent helicity; type: physicochemical
# [8] = test system: B. abortus strain 2308; design: species or system BALB/c mice; details: mouse, in vivo; for % Bacterial Reduction: iv
# [9] = test system: Murine macrophages infected with virulent B. abortus, strain 2308; type: cell-based, BALB/c mice
# [10] = Solubility in water; details: without any organic modifier present
Compound,"Peptide minimum inhibitory concentration, E. coli [1]","Peptide minimum inhibitory concentration, S. aureus [2]","viability at 1 h, 0.1 µM [4]","viability at 1 h, 1 µM [4]","viability at 1 h, 10 µM [4]","viability at 1 h, 50 µM [4]",Effect of incubation with trypsin on antibacterial activity [5],Stress or death of infected mice after treatment [6],also measured
"NCCCC[C@H](NC(=O)[C@H](CCCCN)NC(=O)C1(NC(=O)C2(NC(=O)[C@H](CCCCN)NC(=O)C3(NC(=O)C4(NC(=O)[C@H](CCCCN)NC(=O)[C@@H](N)CCCCN)CCCCC4)CCCCC3)CCCCC2)CCCCC1)C(=O)NC1(C(=O)NC2(C(N)=O)CCCCC2)CCCCC1 [Ch-11, H—LysLysChChLysChChLysLysChCh—NH2] (H-KK[Ac6c][Ac6c]K[Ac6c][Ac6c]KK[Ac6c][Ac6c]-NH2)",5.2 µM,2.6 µM,,,,,,,
"CC(C)(NC(=O)C(C)(C)NC(=O)[C@H](CCCCN)NC(=O)[C@H](CCCCN)NC(=O)C(C)(C)NC(=O)C(C)(C)NC(=O)[C@H](CCCCN)NC(=O)C(C)(C)NC(=O)C(C)(C)NC(=O)[C@H](CCCCN)NC(=O)[C@@H](N)CCCCN)C(N)=O [Ai-11, H—LysLysAibAibLysAibAibLysLysAibAib—NH2] (H-KK[Aib][Aib]K[Aib][Aib]KK[Aib][Aib]-NH2)",55 µM,>220 µM,88%,89%,81%,56.6%,did not decrease antibacterial activity,,Effect of peptide treatment on normal macrophages (in words) [3]: small effect
"NCCCC[C@H](NC(=O)[C@H](CCCCN)NC(=O)C1(NC(=O)C2(NC(=O)[C@H](CCCCN)NC(=O)C3(NC(=O)C4(NC(=O)[C@H](CCCCN)NC(=O)[C@H](CCCCN)NC(=O)C5(NC(=O)C6(NC(=O)[C@@H](N)CCCCN)CCCCC6)CCCCC5)CCCCC4)CCCCC3)CCCCC2)CCCCC1)C(=O)NC1(C(N)=O)CCCCC1 [Ch-13, H—LysChChLysLysChChLysChChLysLysCh—NH2] (H-K[Ac6c][Ac6c]KK[Ac6c][Ac6c]K[Ac6c][Ac6c]KK[Ac6c]-NH2)",6.5 µM,2.2 µM,,,,,did not decrease antibacterial activity,died immediately after treatment,Survival of infected mice after treatment [6]: lived
"CC(C)(NC(=O)C(C)(C)NC(=O)[C@H](CCCCN)NC(=O)[C@H](CCCCN)NC(=O)C(C)(C)NC(=O)C(C)(C)NC(=O)[C@H](CCCCN)NC(=O)C(C)(C)NC(=O)C(C)(C)NC(=O)[C@H](CCCCN)NC(=O)[C@H](CCCCN)NC(=O)C(C)(C)NC(=O)C(C)(C)NC(=O)[C@@H](N)CCCCN)C(N)=O [Ai-14, H—LysAibAibLysLysAibAibLysAibAibLysLysAibAib—NH2] (H-K[Aib][Aib]KK[Aib][Aib]K[Aib][Aib]KK[Aib][Aib]-NH2)",5.5 µM,11 µM,91%,88%,88%,57%,did not decrease antibacterial activity,,
"CC(C)(N)C(=O)NC(C)(C)C(=O)NC1(C(=O)N[C@@H](CCCCN)C(=O)NC(C)(C)C(=O)NC(C)(C)C(=O)NC2(C(=O)N[C@@H](CCCCN)C(=O)NC(C)(C)C(=O)NC(C)(C)C(N)=O)CCNCC2)CCNCC1 [Pi-10, H—AibAibApiLysAibAibApiLysAibAib—NH2] (H-[Aib][Aib][Api]K[Aib][Aib][Api]K[Aib][Aib]-NH2)",,,95%,89%,90%,68%,did not decrease antibacterial activity,,"% Helicity (% α helix) ([7]; CD, 25 mM SDS micelles, 100-200 μM peptide): 43%; Reduction of bacterial load compared to controls (in words) [8]: significantly reduced bacterial load; % Bacterial Reduction [8]: 90%; Infected Macrophage Survival Rate [9]: 55.0 ± 1.00; Antibacterial activity against E. coli (in words) [1]: good antibacterial activity; Antibacterial activity against S. aureus (in words) [2]: moderate activity; Solubility in water [10]: readily soluble in water"
"CC(=O)NC1(C(=O)NC(C)(C)C(=O)NC(C)(C)C(=O)N[C@@H](CCCCN)C(=O)NC(C)(C)C(=O)NC(C)(C)C(=O)N[C@@H](CCCCN)C(=O)NC(C)(C)C(=O)NC(C)(C)C(=O)NC2(C(N)=O)CCNCC2)CCNCC1 [Ipi-10-ac, Ac—ApiAibAibLysAibAibLysAibAibApi—NH2] (Ac-[Api][Aib][Aib]K[Aib][Aib]K[Aib][Aib][Api]-NH2)",,,,,,,,"did not die, but showed physiological signs of stress",
"H-KWKVFKKIEKMGRNIRNGIVKAGPAIAVLGEAKAL-NH2 [cecropin B, reference compound]",,,,,,,destroyed antibacterial activity,,
"CC(C)(NC(=O)[C@H](CCCCN)NC(=O)C(C)(C)NC(=O)C(C)(C)NC(=O)C1(N)CCNCC1)C(=O)NC(C)(C)C(=O)N[C@@H](CCCCN)C(=O)NC(C)(C)C(=O)NC(C)(C)C(=O)NC1(C(N)=O)CCNCC1 [Ipi-10, H—ApiAibAibLysAibAibLysAibAibApi—NH2] (H-[Api][Aib][Aib]K[Aib][Aib]K[Aib][Aib][Api]-NH2)",,,,,,,did not decrease antibacterial activity,"did not die, but showed physiological signs of stress",222/206 intensity ratio (CD) ([7]; in the presence of SDS micelles): 0.32; % Bacterial Reduction [8]: 55%; Solubility in water [10]: readily soluble in water
"CC(=O)N[C@@H](CCCCN)C(=O)N[C@@H](CCCCN)C(=O)NC(C)(C)C(=O)NC(C)(C)C(=O)N[C@@H](CCCCN)C(=O)NC(C)(C)C(=O)NC(C)(C)C(=O)N[C@@H](CCCCN)C(=O)N[C@@H](CCCCN)C(=O)NC(C)(C)C(=O)NC(C)(C)C(N)=O [Ai-11-ac, Ac—LysLysAibAibLysAibAibLysLysAibAib—NH2] (Ac-KK[Aib][Aib]K[Aib][Aib]KK[Aib][Aib]-NH2)",6.6 µM,212 µM,92%,82%,86%,58.5%,did not decrease antibacterial activity,,Effect of peptide treatment on normal macrophages (in words) [3]: small effect
"H-GIGKFLHSAKKFGKAFVGEIMNS-OH [magainin 2, reference compound]",,,,,,,destroyed antibacterial activity,,
"H-KAAKKAAKAAKKAA-NH2 [Al-14, H—LysAlaAlaLysLysAlaAlaLysAlaAlaLysLysAlaAla—NH2, reference compound]",>178 µM,>178 µM,,,,,,,% Bacterial Reduction [8]: −6%
"NCCCC[C@H](NC(=O)[C@H](CCCCN)NC(=O)C1(NC(=O)C2(NC(=O)[C@H](CCCCN)NC(=O)C3(NC(=O)C4(NC(=O)[C@H](CCCCN)NC(=O)[C@@H](N)CCCCN)CCCCC4)CCCCC3)CCCCC2)CCCCC1)C(=O)NC1(C(N)=O)CCCCC1 [Ch-10, H—LysLysChChLysChChLysLysCh—NH2] (H-KK[Ac6c][Ac6c]K[Ac6c][Ac6c]KK[Ac6c]-NH2)",5.7 µM,2.8 µM,,,,,did not decrease antibacterial activity,died immediately after treatment,Survival of infected mice after treatment [6]: lived
"CC(=O)NC(C)(C)C(=O)NC(C)(C)C(=O)NC1(C(=O)N[C@@H](CCCCN)C(=O)NC(C)(C)C(=O)NC(C)(C)C(=O)NC2(C(=O)N[C@@H](CCCCN)C(=O)NC(C)(C)C(=O)NC(C)(C)C(N)=O)CCNCC2)CCNCC1 [Pi-10-ac, Ac—AibAibApiLysAibAibApiLysAibAib—NH2] (Ac-[Aib][Aib][Api]K[Aib][Aib][Api]K[Aib][Aib]-NH2)",,,92%,89%,88%,49%,,died immediately after treatment,
